According to US5556909A, “Substituted 2-arylcarbonyloxymethyl-1,2,5-thiadiazolidin-3-one 1,1-dioxide derivatives and compositions and method of use thereof” (Sanofi Winthrop Inc., priority 1994, dated 1996):
Structures can show the parent of a compound that is named as a salt.

Biological target: T1, human leukocyte elastase (Homo sapiens, UniProt P08246)
T1 sequence (P08246 30-267): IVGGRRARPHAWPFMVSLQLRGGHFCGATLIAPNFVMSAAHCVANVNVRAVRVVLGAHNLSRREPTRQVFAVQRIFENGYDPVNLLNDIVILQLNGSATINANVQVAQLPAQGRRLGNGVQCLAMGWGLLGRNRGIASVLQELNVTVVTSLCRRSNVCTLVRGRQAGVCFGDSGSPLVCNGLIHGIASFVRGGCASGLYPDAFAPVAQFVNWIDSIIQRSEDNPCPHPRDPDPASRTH
Assay: Human leukocyte elastase inhibitory activity (substrate MeOSuc-Ala-Ala-Pro-Val-pNA, microtiter plate progress curves)
Assay type: biochemical
Details: HLE, pH 7.8, 25° C., 500 mM NaCl
Description: The test compound (inhibitor) is dissolved in DMSO in a vial to produce an inhibitor stock solution which has a concentration in the range of 200-1000 μM. The inhibitor stock solution is diluted (1:4, 1:16 and 1:64) into assay vials (vials 1, 2 and 3 respectively) containing 2.4 mL of buffer solution (50 mM N- [2-hydroxyethyl ] piperazine-N'-[2-ethanesulfonic acid]/NaOH, 500 mM NaCl, pH 7.8 at 25° C.) and DMSO is added so that the total volume in each vial is 3.2 mL. 70 μL, 50 μL, 35 μL and 25 μL of inhibitor from assay vial 1 is placed into the first four wells of a 96-well microtiter plate and each well is made up to 90 μL total volume with the addition of a 25% DMSO/buffer solution. The inhibitor from assay vials 2 and 3 is processed in a similar manner and placed in wells 5-12 respectively to afford a total of 12 different inhibitor concentrations. Four wells (wells 13-16) containing 90 μL of the 25% DMSO/buffer solution but no inhibitor are also run simultaneously with the inhibited wells as a control. 150 μL of substrate solution (prepared by the addition of 500 μL of the human leukocyte elastase (HLE) substrate MeOSuc-Ala-Ala-Pro-Val-pNA (18.7 mM in DMSO) to 19.5 mL of buffer solution) is then added simultaneously into each of the 16 wells and the solution in each well was thoroughly mixed.
The 96-well microtiter plate is placed into a Microplate Reader #89815A spectrophotometer and 110 μL of the enzyme solution (prepared as follows: a mixture of 20 mL of buffer solution and 20 mg of bovine serum albumen is gently vortexed in a scintillation vial and 5 μL HLE stock solution (1 mg/mL dissolved in deionized water) is added) is added simultaneously to each of the 16 wells. Each of the solutions in the wells is throughly mixed and then the time-dependent absorbance data is collected at an absorbance of 410 nm until the assay is complete. It should be noted that although this assay method can be done manually, it is preferred to perform the assay robotically using a Hewlett Packard MicroAssay System Robot.
A plot of the absorbance versus time data thus obtained affords progress curves the final slope of which is equal to the final steady-state velocities (VF). Using the program ENZFITTER (Elsevier software), the progress curves for the four control assays ([I]=0) are fit by linear regression to yield the enzyme reaction velocity values in the absences of inhibitor (Vo) which are averaged to produce a single fixed value. The inhibition constant Ki (nM) is then obtained from a plot of [formula] which affords a linear plot wherein: [formula] and [S] is the concentration of the substrate and Km is the Michaelis constant.
Table II summarizes the results obtained from the testing of representative compounds of the invention for human leukocyte elastase inhibitory activity.

SMILES	Ki [nM]
O=C(OCN1C(=O)C2C3CCC(C3)N2S1(=O)=O)c1c(Cl)cccc1Cl (stereo not shown) [15(i)]	3700
O=C(OCN1C(=O)C2CCCCN2S1(=O)=O)c1c(Cl)cccc1Cl (stereo not shown) [13(f), 2-(2,6-dichlorophenylcarbonyloxymethyl)-1,2,5-thiadiazolo [2,3-a]3,3a,4,5,6,7-hexahydropyridine-3-one 1:1-dioxide]	22
CC(C)CCC1C(=O)N(COC(=O)c2c(Cl)ccc(OCCN3CCCC3)c2Cl)S(=O)(=O)N1C (stereo not shown) [9(c), 2-(2,6-dichloro-3-(2-pyrrolidinoethoxy)phenylcarbonyloxymethyl)-4-(3-methylbutyl)-5-methyl-1,2,5-thiadiazolidin-3-one 1,1-dioxide hydrochloride]	0.26
CC(C)CCC1C(=O)N(COC(=O)c2c(Cl)ccc(OCCN3CCOCC3)c2Cl)S(=O)(=O)N1C (stereo not shown) [10(b), 2-(2,6-dichloro-3-[2-(4-morpholino)ethoxy]phenyl-carbonyloxymethyl)-4-(3-methylbutyl)-5-methyl-1,2,5-thiadiazolidin-3-one 1,1-dioxide]	0.2
CC(C)C1NS(=O)(=O)N(COC(=O)c2c(Cl)cccc2Cl)C1=O (stereo not shown) [2(f), 2-(2,6-dichlorophenylcarbonyloxymethyl)-4-isopropyl-1,2,5-thiadiazolidin-3-one 1,1-dioxide]	350
O=C(OCN1C(=O)C2CCCN2S1(=O)=O)c1c(Cl)cccc1Cl (stereo not shown) [14(f), 2-(2,6-dichlorophenylcarbonyloxymethyl) tetrahydropyrrolo[1,2-b]-1,2,5-thiadiazol-3(2H)-one 1,1-dioxide]	170
CCCC1C(=O)N(COC(=O)c2c(Cl)ccc(OCCN3CCOCC3)c2Cl)S(=O)(=O)N1CC (stereo not shown) [Example 12, 2-(2,6-dichloro-3-[2-(4-morpholino]ethoxy]-phenylcarbonyloxymethyl)-4-propyl-5-ethyl-1,2,5-thiadiazolidin-3-one 1,1-dioxide methanesulfonate]	0.45
CCCC1NS(=O)(=O)N(COC(=O)c2c(Cl)cccc2Cl)C1=O (stereo not shown) [1(f), 2-(2,6-dichlorophenylcarbonyloxymethyl)-4-propyl-1,2,5-thiadiazolidin-3-one 1,1-dioxide]	12
CCCC1CCCN2C1C(=O)N(COC(=O)c1c(Cl)cccc1Cl)S2(=O)=O (stereo not shown) [16(j), 2-(2,6-dichlorophenylcarbonyloxymethyl)-4-propyl-1,2,5-thiadiazolo [2,3-a]3,3a, 4,5,6,7-hexahydropyridine-3-one 1,1-dioxide]	9.6
CCCC1(C)C(=O)N(COC(=O)c2c(Cl)cccc2Cl)S(=O)(=O)N1C (stereo not shown) [6(k), 2-(2,6-dichlorophenylcarbonyloxymethyl)-4-methyl-4-propyl-5-methyl-1,2,5-thiadiazolidin-3-one 1,1-dioxide]	120

Second part, the molecule after the results:

Ki [nM]	SMILES
0.62	CN1C(Cc2ccccc2)C(=O)N(COC(=O)c2c(Cl)cccc2Cl)S1(=O)=O (stereo not shown) [11(g), 2-(2,6-dichloro-phenylcarbonyloxymethyl)-4-phenylmethyl-5-methyl-1,2,5-thiadiazolidin-3-one 1,1-dioxide]
0.06	CC(C)CCC1C(=O)N(COC(=O)c2c(Cl)cccc2Cl)S(=O)(=O)N1C (stereo not shown) [8(i)]
4.4	CN1C(CCC(C)(C)Cl)C(=O)N(COC(=O)c2c(Cl)cccc2Cl)S1(=O)=O (stereo not shown) [7(h), 2-(2,6-dichlorophenylcarbonyloxymethyl) -4-(3-methyl-3-chlorobutyl)-5-methyl-1,2,5-thiadiazolidin-3-one 1,1-dioxide]
0.11	CCCC1C(=O)N(COC(=O)c2c(Cl)cccc2Cl)S(=O)(=O)N1C (stereo not shown) [3(i), 2-(2,6-dichlorophenylcarbonyloxy-methyl)-4-propyl-5-methyl-1,2,5-thiadiazolidin-3-one 1,1-dioxide]
0.5	CCCC1C(=O)N(COC(=O)c2c(Cl)cccc2Cl)S(=O)(=O)N1CC (stereo not shown) [5(e), 2-(2,6-dichloro-phenylcarbonyloxymethyl)-4-propyl-5-ethyl-1,2,5-thiadiazolidin-3-one 1,1-dioxide]
25	CC(C)C1C(=O)N(COC(=O)c2c(Cl)cccc2Cl)S(=O)(=O)N1C (stereo not shown) [4(f), 2-(2,6-dichlorophenylcarbonyloxymethyl)-4-isopropyl-5-methyl-1,2,5-thiadiazolidin-3-one 1,1-dioxide]
